{
  "source": "patent US20240285626A1",
  "about": "“INFIGRATINIB FOR TREATMENT OF FGFR3-RELATED SKELETAL DISEASES DURING PREGNANCY” (INSERM (INSTITUT NATIONAL DE LA SANTÉ ET DE LA RECHERCHE …, priority 2018, published 2024)",
  "key": {"[1]": {"tested_on": "Fgfr3Y367C/+ pups", "assay_type": "in vivo, mice", "description": "We treated pregnant female Fgfr3^Neo/Y367C mice that were mated with Cre^CMV/+ male mice (Pannier, S., Couloigner, V., Messaddeq, N., Elmaleh-Bergès, M., Munnich, A., Romand, R., & Legeai-Mallet, L. (2009). Activating Fgfr3 Y367C. mutation causes hearing loss and inner ear defect in a mouse model of chondrodysplasia. Biochimica et Biophysica Acta (BBA)-Molecular Basis of Disease, 1792(2), 140-147.). We injected BGJ398 (4 mg/kg) subcutaneously in 5 pregnant mice at day E14.5 continuing daily through day 1 (after birth). The pregnant mice received 5 injections of BGJ398 before delivery. We applied isofluorane inhalation to the pregnant mice during 20 seconds before the subcutaneous injections. All the pups were analyzed at day 1 after birth. At necropsy, all the long bones were measured and embedded in paraffin and were submitted to histology and immunology."}, "[2]": {"tested_on": "Fgfr3Y367C/+ pups exhibiting dwarfism", "settings": "Komla-Ebri et al 2016; Biosse Duplan et al 2016; cited from earlier work"}, "[3]": {"settings": "Fgfr3Y367C/+ pups, day 1 after birth, mothers 4 mg/kg s.c. daily from E14.5, vs vehicle"}, "[4]": {"settings": "femur histology, H&E staining, vs vehicle, data not shown"}},
  "data": [
    {"smiles": "CCN1CCN(c2ccc(Nc3cc(N(C)C(=O)Nc4c(Cl)c(OC)cc(OC)c4Cl)ncn3)cc2)CC1", "note": "[BGJ398, 3-(2,6-dichloro-3,5-dimethoxyphenyl)-1-[6-[4-(4-ethylpiperazin-1-yl)anilino]pyrimidin-4-yl]-1-methylurea]", "values": [
      {"measurement": "skeletal phenotype at birth", "setting": "[1]; 4 Fgfr3Y367C/+ pups that received BGJ398 vs 5 that received vehicle", "value": "improvement of the skeletal phenotype"},
      {"measurement": "length of the upper limbs (humerus, ulna, radius), in words", "setting": "[1]; FIG. 1A-C, pups at day 1, mothers 4 mg/kg s.c.", "value": "significant improvement of the length"},
      {"measurement": "length of the lower limbs (femur, tibia), in words", "setting": "[1]; FIG. 2A-B, pups at day 1, mothers 4 mg/kg s.c.", "value": "improvement of the length"},
      {"measurement": "improvement of the size of tibia", "setting": "[1]; [3]", "value": "+4.32%"},
      {"measurement": "increase of the length of humerus", "setting": "[1]; [3]", "value": "+4.35%"},
      {"measurement": "increase of the length of ulna", "setting": "[1]; [3]", "value": "+6.12%"},
      {"measurement": "organization of chondrocytes in the proliferative zone of the growth plate cartilage", "setting": "[1]; [4]", "value": "well organized"},
      {"measurement": "size of the hypertrophic chondrocytes in the hypertrophic zone", "setting": "[1]; [4]", "value": "increased"},
      {"measurement": "placental transfer", "setting": "[1]; mouse, in vivo", "value": "cross the placenta at therapeutic level"},
      {"measurement": "skeletal anomalies that occurred during embryonic stages", "setting": "[1]; treatment during 5 days in pregnant mice", "value": "successfully repressed skeletal anomalies"},
      {"measurement": "pathological hallmarks of ACH", "setting": "[2]", "value": "corrects pathological hallmarks of ACH"}
    ]}
  ]
}
